Like-named read-outs stand apart in the source and are kept apart here.
Key:
[1] = test system: COX formation in pooled HLMs; conditions: 500 μM COT, vs control without inhibitor
[2] = urine of Caucasian smokers; ref Rangiah et al., 2011; cited from earlier work
CYP2C19 = CYP2C19 (Homo sapiens, UniProt P33261); conditions: UM2C19/EM2C19 genotype groups compared with PM2C19 genotype group; ref Li-Wan-Po et al., 2010; cited from earlier work
CYP2B6 [3] = target: T1, CYP2B6 (Homo sapiens, UniProt P20813); type: in vitro ADME; conditions: microsomes of HEK293 cells overexpressing CYP2B6
T1 sequence (P20813 1-491): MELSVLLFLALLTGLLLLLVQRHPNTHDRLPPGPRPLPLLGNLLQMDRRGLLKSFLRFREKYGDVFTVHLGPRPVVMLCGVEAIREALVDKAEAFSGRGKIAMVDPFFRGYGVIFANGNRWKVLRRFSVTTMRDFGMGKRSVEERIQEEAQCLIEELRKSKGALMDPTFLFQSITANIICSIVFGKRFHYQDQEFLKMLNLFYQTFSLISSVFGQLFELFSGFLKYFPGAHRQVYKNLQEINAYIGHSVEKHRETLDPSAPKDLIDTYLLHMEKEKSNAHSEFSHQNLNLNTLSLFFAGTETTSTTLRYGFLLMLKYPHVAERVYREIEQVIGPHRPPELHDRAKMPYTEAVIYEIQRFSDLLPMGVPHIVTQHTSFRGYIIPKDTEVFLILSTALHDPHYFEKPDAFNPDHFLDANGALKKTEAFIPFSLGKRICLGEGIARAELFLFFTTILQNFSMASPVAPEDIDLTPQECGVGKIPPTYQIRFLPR

CYP2E1 = CYP2E1 (Homo sapiens, UniProt P05181); type: in vitro ADME; conditions: microsomes of HEK293 cells overexpressing CYP2E1
CYP3A4 = CYP3A4 (Homo sapiens, UniProt P08684); type: in vitro ADME; conditions: microsomes of HEK293 cells overexpressing CYP3A4
[4] = Kinetic analysis of COX formation in pooled HLMs; type: in vitro ADME, human; conditions: pooled HLMs from 20 individuals
[5] = ref Jarvis et al., 1988; cited from earlier work
P450 = conditions: rat, in vivo; cited from earlier work
[6] = in smokers; no reference given; cited from earlier work
CYP2B6 [7] = conditions: formation of COT from nicotine, ref Yamanaka et al., 2005; cited from earlier work
CYP2A6 = conditions: formation of COT from nicotine, ref Yamanaka et al., 2005; cited from earlier work

Chain of CYP2C19 (P33261 whole entry): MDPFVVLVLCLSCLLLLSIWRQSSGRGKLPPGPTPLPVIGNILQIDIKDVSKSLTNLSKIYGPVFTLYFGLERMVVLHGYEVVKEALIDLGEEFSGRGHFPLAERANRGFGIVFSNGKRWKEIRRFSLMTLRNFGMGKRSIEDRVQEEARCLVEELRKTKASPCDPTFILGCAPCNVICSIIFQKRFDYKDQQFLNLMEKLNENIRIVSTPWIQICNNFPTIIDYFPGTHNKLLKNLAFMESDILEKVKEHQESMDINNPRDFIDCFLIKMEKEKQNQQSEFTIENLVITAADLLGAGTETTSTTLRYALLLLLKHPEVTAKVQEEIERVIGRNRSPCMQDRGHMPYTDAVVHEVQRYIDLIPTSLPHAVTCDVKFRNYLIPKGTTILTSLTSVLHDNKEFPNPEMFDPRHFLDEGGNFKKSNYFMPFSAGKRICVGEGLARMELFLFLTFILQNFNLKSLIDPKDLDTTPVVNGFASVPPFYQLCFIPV
Chain of CYP3A4 (P08684 whole entry): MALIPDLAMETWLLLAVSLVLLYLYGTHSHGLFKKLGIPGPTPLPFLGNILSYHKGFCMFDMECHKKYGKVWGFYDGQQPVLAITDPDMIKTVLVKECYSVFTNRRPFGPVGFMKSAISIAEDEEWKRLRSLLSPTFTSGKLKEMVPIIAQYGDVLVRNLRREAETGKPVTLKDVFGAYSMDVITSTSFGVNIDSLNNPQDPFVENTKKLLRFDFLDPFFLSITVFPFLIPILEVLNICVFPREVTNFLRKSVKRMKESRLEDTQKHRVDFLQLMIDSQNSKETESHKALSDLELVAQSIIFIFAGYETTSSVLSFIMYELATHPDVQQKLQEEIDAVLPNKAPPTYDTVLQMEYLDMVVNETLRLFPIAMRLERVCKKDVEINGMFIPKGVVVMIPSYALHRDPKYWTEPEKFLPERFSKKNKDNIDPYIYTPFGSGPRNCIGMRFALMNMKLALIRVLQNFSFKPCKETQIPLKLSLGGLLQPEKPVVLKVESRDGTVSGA
Chain of CYP2E1 (P05181 whole entry): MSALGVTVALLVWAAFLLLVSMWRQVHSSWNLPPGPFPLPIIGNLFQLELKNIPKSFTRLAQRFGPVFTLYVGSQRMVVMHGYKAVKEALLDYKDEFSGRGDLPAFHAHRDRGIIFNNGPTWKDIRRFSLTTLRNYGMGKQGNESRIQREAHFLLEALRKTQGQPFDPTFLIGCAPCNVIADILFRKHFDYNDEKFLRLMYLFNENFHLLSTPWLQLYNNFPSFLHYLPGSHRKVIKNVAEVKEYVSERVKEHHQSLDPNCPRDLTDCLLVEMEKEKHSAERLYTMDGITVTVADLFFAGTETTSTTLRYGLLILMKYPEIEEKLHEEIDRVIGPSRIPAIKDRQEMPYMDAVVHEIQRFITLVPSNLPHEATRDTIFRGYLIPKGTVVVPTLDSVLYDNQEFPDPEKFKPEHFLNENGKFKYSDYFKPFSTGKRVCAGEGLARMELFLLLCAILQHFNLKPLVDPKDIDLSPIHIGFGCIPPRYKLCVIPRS

For N[C@@H]1C[C@H]1c1ccccc1 (racemic) [tranylcypromine], the “decrease in COX formation” value ([1]; 1 µM inhibitor) was 15%.

For O=C1CCC(c2cccnc2)N1CO (stereo not shown) [N-(hydroxyl-methyl) norcotinine], the “average share of cotinine metabolites in urine” value [2] is given as 4%.

In the case of COC(=O)[C@H](c1ccccc1Cl)N1CCc2sccc2C1 [clopidogrel], the “decrease in COX formation” value ([1]; 10 µM inhibitor) is given as 21% and the increased enzyme efficacy (CYP2C19) is given as 35%–40%.

Molecule CN1C(=O)CC[C@H]1c1cccnc1 [cotinine] has a Km at 30 min (CYP2B6 [3]) of 810 ± 24 µM, a Km at 30 min (CYP2E1) of over 10000 µM and a Km at 30 min (CYP3A4) of over 10000 µM. For the same molecule, the Km ([4]; COX formation from cotinine) was 550 ± 49 µM, the Vmax ([4]; COX formation) was 587 ± 26 pmol/min/mg and the “half-life of elimination from plasma” value [5] was 10 to 27 h.

For CC(C)(C(=O)c1cccnc1)c1cccnc1 [metyrapone], the “effect on phenobarbital-induced increase of COX production” value (P450) is given as “negated”.

In the case of CN1CCC[C@H]1c1cccnc1 [nicotine], the “share of metabolism via formation of cotinine by CYP2A6” value [6] is listed as about 70%, the Km (CYP2B6 [7]) is listed as 550 µM and the Km (CYP2A6) is listed as 95 µM.

In the case of COc1ccc2[nH]c([S+]([O-])Cc3ncc(C)c(OC)c3C)nc2c1 (stereo not shown) [omeprazole], the increased enzyme efficacy (CYP2C19) is given as 35%–40%.

In the case of CCC1(c2ccccc2)C(=O)NC(=O)NC1=O [phenobarbital], the “increase of COX production” value (P450) is given as “eightfold”.

— article PMC9832378 (Drug Metabolism and Disposition, 2023)
